# Experiments:
# db/db mice [1] = test: Acute I.P. CSAA treatment, blood glucose in diabetic db/db mice; type: in vivo; conditions: 100 microgram/mouse I.P.
# From the text: (§1) The 5-week old db/db mice and the C57/B16 mice were purchased from Jackson Laboratory and housed in the vivarium of UMDNJ-RWJMS. […] For food intake experiments, sets of mice were housed individually in metabolic cages (Nalgene) with free access to food and water. Food cups and food scattered in the runway to the cups were weighed daily to determine food intake. For mouse tissue studies, mice were sacrificed by decapitation, and the tissues of interesting were obtained.
# (§2) Blood glucose was determined using OneTouch UltraSmart blood glucose monitoring system (Lifescan), and the insulin levels were measured by ultra sensitive mouse insulin ELISA kit (Crystal Chem Inc.), following the manufacturer's instructions.
# [2] = test system: high-fat diet induced pre-diabetic C57/B16 mice; test: Acute I.P. treatment, blood glucose in high-fat diet induced pre-diabetic mice; type: in vivo; conditions: 100 microgram/mouse I.P., starved 5 hours
# From the text: as §1, §2
# AMPK [3] = test: Immunoblotting of phosphorylated AMPK in liver after acute I.P. CSAA; type: in vivo; conditions: mouse liver, acute 100 microgram/mouse I.P., 0, 2, 4 hours
# Protocol: (§3) Immunoblotting assays were carried out according to standard protocol. The sources of the antibodies are: AMPK antibody (Cell Signaling Technology), Thr-172-phosphorylated AMPK antibody (Cell Signaling Technology), Ran antibody (C-20, Santa Cruz).
# C57/B16 mice = test: Glucose uptake assay with 3H 2-deoxyglucose in tissues; type: in vivo; conditions: acute 100 microgram/mouse I.P., 3H-2-deoxyglucose 1.5 hours later
# Protocol: 1.5 hours later, ^3H-2-deoxyglucose (0.5 microcurrie/gram of body weight) was injected through I.P. route. 30 minutes later, mice were treated with anesthetics and perfused with PBS. Mice were then sacrificed and tissue was extracted for measurement of ^3H-2-deoxyglucose accumulation (normalized against tissue mass).
# db/db mice [4] = test: Chronic oral CSAA treatment of db/db diabetic mice; type: in vivo, mouse
# From the text: as §1, §2
# [5] = test system: C57/B16 mice fed with high-fat diet; test: Chronic oral CSAA treatment of high-fat diet induced pre-diabetic mice; type: in vivo, mouse
# From the text: as §1, §2
# [6] = test system: C57/B16 mice fed with high-fat diet; test: Glucose tolerance assay after chronic oral CSAA; type: in vivo, mouse; conditions: high-fat diet containing 1500 ppm CSAA for 9 weeks
# Protocol: (§4) For glucose tolerance tests, mice were starved overnight and injected I.P. with 20% glucose at a dose of 2 g/kg body weight. Blood was obtained from the tail at time points 0, 15, 30, 60, 90, and 120 min for glucose measurement. For insulin tolerance tests, mice were starved for 5 h and injected I.P. with 0.75 U/kg body weight recombinant human insulin (Eli Lilly). Blood was obtained from the tail at time points 0, 15, 30, 60, 90, and 120 min for glucose measurement.
# [7] = test system: C57/B16 mice fed with high-fat diet; test: Insulin tolerance assay after chronic oral CSAA; type: in vivo, mouse; conditions: high-fat diet containing 1500 ppm CSAA for 9 weeks
# Protocol: as §4
# AMPK [8] = test: Immunoblotting of phosphorylated AMPK in liver after chronic oral CSAA; type: in vivo, mouse; conditions: mice under high-fat diet
# Protocol: as §3
# [9] = Chronic I.P. CSAA injection, high-fat diet induced body weight gain and food uptake; type: in vivo; conditions: daily I.P. 100 μg/mouse
# From the text: as §1
# The other 12 mice were injected daily with vehicle only (PBS). The body weight was measured twice a week and the net body weight gain for each mouse was determined. The average weight gain in each group over the experimental period was plotted. […] The food uptake levels were measured daily with metabolic cages from the day 15 to day 29 and the average daily food uptake of each group was calculated.
# [10] = test system: mitochondria isolated from mouse liver; test: Mitochondrial uncoupling assay with isolated mitochondria (oxygen consumption, Oxygraph); type: biochemical; conditions: oligomycin 5 μg/ml
# Protocol: For mitochondrial uncoupling assay with isolated mitochondria: Mitochondria were isolated from mouse liver. 1.0 mg of mitochondria in a volume of 0.9 ml of respiration buffer was analyzed for oxygen consumption in the presence of mitochondrial substrate as well as the various inhibitors with an Oxygraph System (Hansatech Instrument, Norfolk, UK). The final concentrations of the various chemicals added into the respiration buffer are as follows: succinate, 5 mM; ADP, 125 μM; oligomycin, 5 μg/ml; KCN, 2 mM)
# NIH-3T3 cells [11] = test: Mitochondrial membrane potential (TMRE staining) in cultured cells; type: cell-based, mouse
# Protocol: For mitochondrial uncoupling activity analysis with the cultured cells, the NIH-3T3 were culture to 90% confluence. […] The cells were then treated with TMRE (Tetramethylrhodamine ethyl ester perchlorate) to a final concentration of 100 nM, incubate for 15 minutes. The cells were then washed twice with PBS, and the pictures were taken under microscope.
# NIH-3T3 cells [12] = test: Cellular oxygen consumption (BD Oxygen Biosensor System); type: cell-based, mouse
# Protocol: (§5) BD™ Oxygen Biosensor System was used to measure the cellular oxygen consumption. NIH-3T3 cells were cultured overnight to log phase, then seeded in oxygen biosensor 96-well plate at the density of 20000 cells per well in DMEM medium. […] Oxygen consumptions (decrease in oxygen concentrations) were indicated by generation of fluorescent signals which were initially quenched by oxygen. Cellular ATP concentrations were measured with the ENLITEN® ATP Assay System and normalized against cell number.
# NIH-3T3 cells [13] = test: Cellular ATP concentrations (ENLITEN ATP Assay System); type: cell-based, mouse; conditions: CSAA 1 μM
# Protocol: as §5
# hepatocytes = conditions: high-fat diet containing 1500 ppm CSAA for 10 weeks
# From the text: For mouse liver histological study, the mice sacrificed by decapitation. Liver slices were fixed with buffered formalin (Surgipath Medical Industries, Inc.) and embedded in paraffin. Tissue slides were stained with hematoxylin and eosin (H&E) for detection of lipid droplets in tissue samples. Pictures were taken with a Universal Microscope Axioplan 2 imaging system (Carl Zeiss) with phase contrast objectives.
# [14] = among the first 100,000 persons treated; cited from earlier work
# mitochondria = conditions: cited from earlier work
# [15] = stated for both mouse strains (FIG. 1)
# [16] = high-fat diet containing 1500 ppm CSAA for 8 weeks
# [17] = NIH-3T3 cells, 2 hours treatment, TMRE
structure (smiles),measurement,setting,value
"NCCO.O=C(Nc1ccc([N+](=O)[O-])cc1Cl)c1cc(Cl)ccc1O [CSAA, 5-chloro-salicyl-(2-chloro-4-nitro) anilide 2-aminoethanol salt]",time after treatment at which blood glucose concentrations were lowered,db/db mice [1]; [15],~1 h
same,time until which blood glucose lowering remained effective,db/db mice [1]; [15],about 4 hours
same,reduction in blood glucose as compared to the control,"db/db mice [1]; db/db mice, starved 5 hours",30%
same,effect on blood glucose concentration (hypoglycemic activity),[2],dramatic decrease in blood glucose concentration
same,levels of the phosphorylated AMPK,AMPK [3],dramatically increased
same,"glucose uptake rates in liver, muscles, kidney, and lungs",C57/B16 mice,significantly increased
same,food intake rates versus mice fed normal food,db/db mice [4]; 1500 ppm in food,not significantly different
same,body weight and adiposity versus control mice,db/db mice [4]; oral CSAA (data not shown),not different from the control mice
same,fasting blood glucose levels versus non-CSAA treated mice at later time,db/db mice [4]; oral treatment beyond two weeks (data not shown),remained significantly lower
same,fasting blood glucose,"db/db mice [4]; two week oral treatment, 1500 ppm in AIN-93M food",reduced the fasting blood glucose of the db/db mice to almost normal levels
same,fasting blood glucose,[5]; [16],completely prevented the increase of fasting blood glucose
same,fasting insulin concentrations versus control group,[5]; [16],significantly lower
same,food uptake,"[5]; high-fat diet containing 1500 ppm CSAA, weeks 7 to 8",no effect
same,body weight and adiposity versus control mice,[5]; high-fat diet with oral CSAA (data not shown),not different from the control mice
same,insulin sensitivity by glucose tolerance assay,[6],significantly increased insulin sensitivity
same,insulin sensitivity by insulin tolerance assay,[7],significantly increased insulin sensitivity
same,AMPK activity in liver,AMPK [8],chronically elevated
same,food uptake rate versus vehicle group,[9]; day 15 to day 29,higher food uptake rate
same,weight gain induced by high-fat diet,[9]; mice aged 8 months on high-fat diet,reduces the weight gain
same,mitochondrial oxygen consumption in the presence of oligomycin,[10],still effectively promoted mitochondrial oxygen consumption
same,earliest time at which dissipation of mitochondrial membrane potential is seen,"NIH-3T3 cells [11]; NIH-3T3 cells, 2 μM CSAA",5 min
same,concentration at which reduction of mitochondrial membrane potential starts,NIH-3T3 cells [11]; [17],500 nM
same,concentration for full uncoupling of mitochondria,NIH-3T3 cells [11]; [17],around 5 micromolar
same,concentration range at which mitochondria are uncoupled in cultured cells,NIH-3T3 cells [11]; cultured cells,high nanomolar to low micromolar range
same,cellular oxygen consumption,NIH-3T3 cells [12]; CSAA 1 μM,dramatically stimulated
same,effect of oligomycin co-treatment on CSAA-stimulated oxygen consumption,NIH-3T3 cells [12]; CSAA 1 μM and oligomycin 5 μg/ml,did not significantly affect
same,steady-state ATP concentrations in cells,NIH-3T3 cells [13],does not affect
same,lipid load in hepatocytes,hepatocytes,dramatically reduced
"O=[N+]([O-])c1ccc(O)c([N+](=O)[O-])c1 [DNP, 2,4-dinitrophenol]",fatalities due to hyperthermia,[14],two fatalities
same,concentrations at which the mitochondrial uncoupler functions,mitochondria,mini molar concentrations

# — patent publication US20130231312A1, “TREATMENT OF TYPE II DIABETES AND DIABETES-ASSOCIATED DISEASES WITH SAFE CHEMICAL MITOCHONDRIAL UNCOUPLERS” (priority 2010, published 2013)
